Source: the SangsterLogP compilation

Experiment: method code SF, from Hansch, C. & Leo, A. (1987). Log P database [Dataset]. Pomona College Medicinal Chemistry Project.
Settings: not given

Compound | logP
CC1(C)O[C@@H]2C[C@H]3[C@@H]4C[C@H](F)C5=CC(=O)C=C[C@]5(C)[C@@]4(F)[C@@H](O)C[C@]3(C)[C@]2(C(=O)CO)O1 | 2.48
CN(C)Cc1cccs1 | 1.67
c1cnc2nccnc2c1 | -0.04
Cc1ccc(S(=O)(=O)Oc2ccccc2C(=O)N(C)C)cc1 | 2.01
CN(C)/N=N/c1ccccc1C(=O)NNC(=O)CC#N | 1.44
CCC(O)CC | 1.21
CCOC(=O)/C(=C/c1cccc(F)c1)C(C)=O | 2.46
N#C/N=N/c1ccccc1 | 2.3
COc1ccc(C(N)=O)cc1 | 0.86
Nc1ccc2ccccc2c1S(=O)(=O)O | -1.16
CC1=Nc2ccc(C)cc2S(=O)(=O)N1 | 0.81
CNC(=O)C=C(C)OP(=O)(OC)OC | -0.2
COc1ccc(C(N)=O)cc1/N=N/N(C)C | 0.44
O=C(c1ccncc1)c1ccc(O)cc1 | 1.37
CNc1nc2ccccc2o1 | 1.82
C=C(C)CC1(CC)C(=O)NC(=S)NC1=O | 2.19
CCC(C)c1ccccc1OC(=O)N(C)C (stereo not drawn) | 3.31
CC(C)(C)c1ccccc1 | 4.11
CNP(=O)(OC)Oc1ccc(Cl)cc1Cl (stereo not drawn) | 2.41
CCOC(=O)C(=Cc1cccc(OCC)c1)C(=O)OCC | 3.39
O=C(O)COc1ccc(Cl)c(I)c1 | 3.1
CC1=Nc2cc(N)c(Cl)cc2S(=O)(=O)N1 | 0.63
CC(=O)CF | -0.39
O=c1cc(-c2ccccc2)oc2cc(O)ccc12 | 3.62
CC1=Nc2c(Br)cc(Cl)cc2S(=O)(=O)N1 | 1.65
Cc1ccc(C=C(C#N)C#N)cc1 | 2.4

Compound | logP
CC(=O)c1ccc2ncccc2c1 | 1.58
CNP(=O)(OC)Oc1ccccc1Cl (stereo not drawn) | 1.61
NNc1ncnc2c([C@@H]3O[C@H](CO)[C@@H](O)[C@H]3O)n[nH]c12 | -1.42
NNC(=O)NN=Cc1ccccc1 | 0.81
N#CN=[N+]([O-])c1ccc(Cl)cc1 | 2.33
CNC(=S)NC12CC3CC(CC(C3)C1)C2 | 2.67
Cc1ccc(C(N)=O)cc1 | 1.18
NC(=O)c1ccsc1 | 0.5
CCOC(=O)C(=Cc1ccc(Cl)c(Cl)c1)C(C)=O | 3.92
CCOC(=O)C(C#N)=Cc1ccccc1 | 2.43
CC(=O)c1ccc2ccccn12 | 2.06
O=c1[nH]cc(I)c(=O)[nH]1 | 0.04
COc1cc(C=NOC(=O)COc2ccccc2)ccc1OCCO | 2.1
CCOC(CP(=O)(OCC)OCC)OCC | 0.69
CN(C(=O)c1ccccc1)c1ccccc1 | 2.36
c1ccc2[nH]c(CCCCc3nc4ccccc4[nH]3)nc2c1 | 1.59
CC1(C)O[C@@H]2C[C@H]3[C@@H]4CCC5=CC(=O)C=C[C@]5(C)[C@@]4(F)[C@@H](O)C[C@]3(C)[C@]2(C(=O)CO)O1 | 2.53
O=P1(NCCCl)OCCCN1CCCl (stereo not drawn) | 0.86
CON(C)C(=O)Nc1ccc2c(c1)Cc1ccccc1-2 | 3.67
O=Cc1cccs1 | 1.02
COc1cc(C=O)ccc1OCCOC(=O)c1cccc(Cl)c1 | 3.67
NC(=O)CF | -1.05
O=NN(CCCl)C(=O)NC1CS(=O)(=O)CS(=O)(=O)C1 | -0.94
CC(=O)N(C)/N=N/c1ccc(C)cc1 | 3.23
NC(=O)c1ncn2c(=O)n(CCCl)nnc12 | -0.47
CCC1=Nc2ccc(Cl)cc2S(=O)(=O)N1 | 1.62

Compound | logP
O=C(CNC(=O)c1ccccc1)Oc1cccc(F)c1 | 2.58
Cc1ccccc1OCC(O)CO (stereo not drawn) | 1.41
CCCCOc1cccc(C=C(C(C)=O)C(=O)OCC)c1 | 3.12
CNC(=O)COc1ccccc1 | 1.02
NC(=S)NN=Cc1cccc(O)c1 | 1.61
CCOC(=O)NC1=C(N2CC2)C(=O)C(NC(=O)OCC)=C(N2CC2)C1=O | 0.05
CP(C)c1ccccc1 | 2.57
NC(=O)c1cccc([N+](=O)[O-])c1 | 0.77
CN(C)C#N | -0.15
CC(=O)c1cccc(OC(=O)N(C)C)c1 | 1.18
CCC(C)c1ccccc1O (stereo not drawn) | 3.27
CC(=O)Oc1ccccc1C | 1.93
O=[N+]([O-])/C=C/c1ccc(Cl)cc1Cl | 3.26
COC(=O)c1ccccc1NC(C)=O | 1.65
COCC1=Nc2cc(Cl)ccc2S(=O)(=O)N1 | 1.12
C=C1C(=O)O[C@@H]2/C=C(\C)CC/C=C(\C)CC[C@@H]12 | 2.09
CCCCSC(C)(C)C(N)=O | 1.81
O=S(=O)(c1ccccc1)C(F)(F)F | 2.69
CCC(C)(C)C | 3.82
Cc1ccccc1OC(=O)N(C)C | 1.86
CCOc1ccccc1NC(C)=O | 1.49
CCc1ccccc1NC(C)=O | 1.33
NC(=O)CBr | -0.52
CCOC(=O)C(=Cc1cccc(C)c1)C(=O)OCC | 3.55
Cc1ccc(S(=O)(=O)F)cc1 | 2.74
Cn1ccc(=O)[nH]c1=O | -1.2

Compound | logP
Cn1c(=O)c(=O)n(C)c2ccccc21 | 0.08
CCC1OC(=O)C(C)C(OC2CC(C)(O)C(C)O2)C(C)C(OC2OC(C)C(O)C(N(C)C)C2O)C(C)(O)CC(C)C(=O)C(C)C(O)C1(C)O (stereo not drawn) | 1.44
CC1=Nc2c(I)cc(Cl)cc2S(=O)(=O)N1 | 1.81
C#CCCC(=O)N(C)c1ccc(S(=O)(=O)N(C)C)cc1 | 0.88
O=C1c2ccccc2C(=O)C1(O)O | 0.67
CCNP(=O)(OC)Oc1cc(Cl)c(Cl)cc1Cl (stereo not drawn) | 3.18
CN(C)/N=N/c1ccccc1C(=O)NCC#N | 1.79
CC(C)c1ccc(C(N)=O)cc1 | 2.14
CCOC(=O)C(=Cc1ccccc1Cl)C(=O)OCC | 3.15
COc1cccc(OC(=O)N(C)C)c1 | 1.6
CC1(C)Cc2cccc(O)c2O1 | 2.08
Clc1ccc2[nH]c(CCc3nc4cc(Cl)ccc4[nH]3)nc2c1 | 1.13
CN(C)CC(CN1c2ccccc2Sc2ccccc21)N(C)C (stereo not drawn) | 4.76
COC(=O)Cc1ccsc1 | 1.46
Nc1cccc2nc3ccccc3cc12 | 2.47
CNP(=O)(OC)Oc1cccc(C(C)(C)C)c1 (stereo not drawn) | 2.65
CCOC(=O)/C(=C/c1ccc(OC)c(OC)c1)C(C)=O | 2.02
CCCC(=O)Nc1ccc(Cl)c(Cl)c1 | 3.77
OC(CF)CF | -0.36
O=C(CCl)Nc1ccccc1 | 1.63
O=C(Nc1ccccc1)NC1CC(O)C(CO)OC1O (stereo not drawn) | -0.61
COc1cc(O)cc(OC)c1 | 1.64
O=C(CCc1ccccc1)Nc1ccc(Cl)c(Cl)c1 | 4.85
CN(N=O)C(=O)N[C@H]1C(O)O[C@H](CO)[C@@H](O)[C@@H]1O (stereo partly drawn) | -1.45
O=C1C=CC(=O)N1 | -0.29
OC[C@@H]1C[C@H]1c1ccccc1 | 1.95

Compound | logP
CC[C@H]1OC(=O)[C@H](C)[C@@H](O[C@H]2C[C@@](C)(OC)[C@@H](O)[C@H](C)O2)[C@H](C)[C@@H](O[C@@H]2O[C@H](C)C[C@H](NC)[C@H]2O)[C@](C)(O)C[C@@H](C)C(=O)[C@H](C)[C@@H](O)[C@]1(C)O | 2.21
CCNC(=S)Nc1ccccc1 | 1.42
CN(C(=O)CCSC#N)c1ccc(S(=O)(=O)N(C)C)cc1 | 0.84
CCOP(=O)(OCC)OCC | 0.8
Cc1cc(COc2ccccc2C(C)C)c(O)c(C(=O)O)c1 | 4.91
O=C(c1ccncc1)c1ccccc1O | 2.13
O=S(=O)(Oc1ccccc1)c1ccccc1 | 3.06
CC(=O)Nc1ccc2c(=O)c(C)c(C)oc2c1[N+](=O)[O-] | 1.61
CCCOP(=O)(OCCC)OCCC | 1.87
CC(=O)OCC1CCC(NC(=O)N(CCCl)N=O)CC1 (stereo not drawn) | 2.24
CC(C(=O)N(C)c1ccc(S(=O)(=O)N(C)C)cc1)c1ccccc1 (stereo not drawn) | 1.73
CCC(=O)OCC(=O)[C@@]1(OC(=O)CC)[C@H](C)C[C@H]2[C@@H]3C[C@H](F)C4=CC(=O)C(Cl)=C[C@]4(C)[C@@]3(F)[C@@H](O)C[C@@]21C | 4.22
COC(=O)CNC(=O)c1ccccc1 | 0.82
FS(F)(F)(F)(F)c1ccccc1 | 3.36
COC(=O)c1ccccc1C | 2.75
O=NN(CCF)C(=O)NC1CCC(NC(=O)N(CCF)N=O)CC1 (stereo not drawn) | 1.34
Cc1cccc(C(N)=O)c1 | 1.18
CCOP(=S)(OCC)Oc1ccc(SC)cc1Cl | 4.4
CC(=O)Nc1cccc(/N=N/N(C)C)c1 | 1.61
Cc1ccccc1C#N | 2.21
CC(C)C1OC(=O)c2ccccc21 (stereo not drawn) | 2.1
O=c1[nH]c2ccccc2o1 | 1.16
c1cn[nH]n1 | -0.29

Same assay, conditions: pH 2.0

Compound | logD
O=C(O)c1ccc[nH]1 | 0.85

Same assay, conditions: pH 3.0

Compound | logD
CC(=O)OCC1=C(C(=O)O)N2C(=O)C(NC(=O)CSc3cc(Cl)ccc3Cl)C2SC1 (stereo not drawn) | 1.66

Same assay, conditions: pH 4.2

Compound | logD
COCCN(N=Nc1[nH]cnc1C(N)=O)C(C)(C)C | 1.14

Same assay, conditions: pH 5.0

Compound | logD
CC(C)c1ccc(O)c(=O)cc1 | 1.89

Same assay, conditions: pH 6.2

Compound | logD
Nc1nc(CON=CC(=O)NC2C(=O)N3C(C(=O)OC4OC(=O)c5ccccc54)=CCSC23)cs1 (stereo not drawn) | 1.28

Same assay, conditions: pH 6.6

Compound | logD
CON=C(C(=O)NC1C(=O)N2C(C(=O)OCOC(=O)C(C)(C)C)=C(CSc3nnnn3C)CSC12)c1csc(N)n1 (stereo not drawn) | 1.74

Same assay, conditions: pH 7.0

Compound | logD
Brc1ccc2ncccc2c1 | 2.83
CS(=O)(=O)c1ccc(Cl)cc1 | 1.06
CC(=O)c1cccc(C#N)c1 | 1.16
NC(=O)c1cccnc1N | 0.88
COc1ccccc1CO | 1.13

Same assay, conditions: pH 7.4

Compound | logD
NC(=S)N/N=C/c1ccc(O)cn1 | 0.69
CSc1ccc2c(c1)C(c1ccccc1)=NCC(=O)N2 | 2.92
CN(C)/N=N/c1ccccc1 | 2.59
O=C1C=C(O)CCN1[C@@H]1O[C@H](CO)[C@@H](O)[C@H]1O | -2.28

Same assay, conditions: pH 8.0

Compound | logD
COc1ccc(-c2nc3ccccc3[nH]2)c(OC)c1 | 2.59

Same assay, conditions: pH 11.0

Compound | logD
c1cncc(CN2CCCCC2)c1 | 1.49
CN(C)CCc1cccnc1 | 0.82
CNCc1cccnc1 | 0.39

Same assay, conditions: pH 12.0

Compound | logD
CCCCCC1CN[C@H](C(=O)NC(C(C)Cl)[C@H]2O[C@H](SC)[C@H](O)[C@@H](O)[C@H]2O)C1 (stereo in doubt) | 2.74

Same assay, conditions: pH 13.0

Compound | logD
COc1cc(Cc2cnc(N)nc2N)cc(OC)c1N(C)C | 1.51
